Source: patent US12637478B2, “Compound, preparation method thereof, and antibiotic composition comprising same” (priority 2020, dated 2026)
≈ marks a conversion by molar mass, not a printed value. Where two headings read alike, the source gives them in different places.

Columns and labels:
S. aureus^MS [1] = assay: MIC by broth microdilution (aerobic pathogens), test strain 2; assay type: cell-based; details: Staphylococcus aureus
Procedure: (§1) The antibacterial activity of the compounds of Examples 1 to 48 of the present invention against aerobic pathogens were evaluated by measuring the minimum concentration of the antibiotic capable of inhibiting bacterial growth by 90% compared to the growth of the non-drug treated control group. MIC was measured by the broth microdilution method based on CLSI standards [Reference: Clinical and Laboratory Standards Institute Document. (2000) Methods for Dilution Antimicrobial Susceptibility Test for Bacteria that Grow Aerobically-Fifth Edition: M7-A5. CLSI, Villanova, PA].
(§2) All 13 strains such as methicillin susceptible Staphylococcus aureus (MSSA), methicillin resistant Staphylococcus aureus (MRSA), Vancomycin resistant Staphylococcus aureus (VRSA), Staphylococcus epidermidis, methicillin resistant Staphylococcus epidermidis, Enterococcus faecalis, Vancomycin resistant Enterococcus faecalis, Enterococcus faecium, Vancomycin resistant Enterococcus faecium were used.

E. faecium^VRE = assay: MIC by broth microdilution (aerobic pathogens), test strain 11; assay type: cell-based, Vancomycin resistant Enterococcus faecium; details: Enterococcus faecium
Procedure: as §1, §2

S. aureus^MS [2] = assay: MIC by broth microdilution (aerobic pathogens), test strain 1; assay type: cell-based; details: Staphylococcus aureus
Procedure: as §1, §2

E. faecalis = assay: MIC by broth microdilution (aerobic pathogens), test strain 7; assay type: cell-based; details: Enterococcus faecalis
Procedure: as §1, §2

S. epidermis^MR = assay: MIC by broth microdilution (aerobic pathogens), test strain 6; assay type: cell-based, Methicillin resistant Staphylococcus epidermidis; details: Staphylococcus epidermidis
Procedure: as §1, §2

E. faecalis^VanA = assay: MIC by broth microdilution (aerobic pathogens), test strain 8; assay type: cell-based, Vancomycin resistant Enterococcus faecalis; details: Enterococcus faecalis
Procedure: as §1, §2

S. epidermis = assay: MIC by broth microdilution (aerobic pathogens), test strain 5; assay type: cell-based; details: Staphylococcus epidermidis
Procedure: as §1, §2

C. difficile 174 = assay: MIC by agar dilution against Clostridioides difficile, test strain 18; assay type: cell-based
C. difficile 9689 = assay: MIC by agar dilution against Clostridioides difficile, test strain 13; assay type: cell-based
C. difficile 152 = assay: MIC by agar dilution against Clostridioides difficile, test strain 14; assay type: cell-based
S. aureus^MR = assay: MIC by broth microdilution (aerobic pathogens), test strain 3; assay type: cell-based, Methicillin resistant Staphylococcus aureus; details: Staphylococcus aureus
Procedure: as §1, §2

E. faecalis^LinR = assay: MIC by broth microdilution (aerobic pathogens), test strain 9; assay type: cell-based, Linezolid resistant Enterococcus faecalis; details: Enterococcus faecalis
Procedure: as §1, §2

E. faecium = assay: MIC by broth microdilution (aerobic pathogens), test strain 10; assay type: cell-based; details: Enterococcus faecium
Procedure: as §1, §2

C. difficile 161 = assay: MIC by agar dilution against Clostridioides difficile, test strain 16; assay type: cell-based
S. aureus^VR = assay: MIC by broth microdilution (aerobic pathogens), test strain 4; assay type: cell-based, Vancomycin resistant Staphylococcus aureus; details: Staphylococcus aureus
Procedure: as §1, §2

C. difficile 159 = assay: MIC by agar dilution against Clostridioides difficile, test strain 15; assay type: cell-based
E. faecium^LinR = assay: MIC by broth microdilution (aerobic pathogens), test strain 12; assay type: cell-based, Linezolid resistant Enterococcus faecium; details: Enterococcus faecium
Procedure: as §1, §2

C. difficile 173 = assay: MIC by agar dilution against Clostridioides difficile, test strain 17; assay type: cell-based
C. difficile 181 = assay: MIC by agar dilution against Clostridioides difficile, test strain 19; assay type: cell-based
M. intracelluare = assay: MIC by resazurin (REMA) assay against Mycobacterium, test strain 22; assay type: cell-based; details: Mycobacterium intracellulare
Procedure: (§3) In order to test the antibacterial activity, the medium of Mycobacterium cultured to late log phase was diluted so as to be 4.0×10^5 cells/well in Middlebrook 7H10 agar medium (Difco) supplemented with 10% oleic acid, albumin, dextrose, catalase (OADC, Becton Dickinson) and 0.05% Tween 80 (Sigma Aldrich) and was dispensed into a 96-well plate. The compounds were treated so that DMSO was 1%, and after 3 days, a 0.025% resazurin (REMA) solution was dispensed, and the growth of the bacteria was confirmed after culturing. The MIC value was measured for the antibacterial activity through resazurin (excitation 530 nm, emission 590 nm).

M. abscessus = assay: MIC by resazurin (REMA) assay against Mycobacterium, test strain 23; assay type: cell-based; details: Mycobacteroides abscessus
Procedure: as §3

M. avium = assay: MIC by resazurin (REMA) assay against Mycobacterium, test strain 21; assay type: cell-based; details: test strain 21, M. avium, resazurin, read-out: MIC
Procedure: as §3

[3] = test strain 2, S. aureus^MS, read-out: MIC
[4] = test strain 11, E. faecium^VRE (vancomycin resistant), read-out: MIC
[5] = test strain 1, S. aureus^MS, read-out: MIC
[6] = test strain 7, E. faecalis, read-out: MIC
[7] = test strain 6, S. epidermis^MR (methicillin resistant), read-out: MIC
[8] = test strain 8, E. faecalis^VanA (vancomycin resistant), read-out: MIC
[9] = test strain 17, C. difficile 173, anaerobic, agar dilution, read-out: MIC
[10] = test strain 18, C. difficile 174, anaerobic, agar dilution, read-out: MIC
[11] = test strain 13, C. difficile 9689, anaerobic, agar dilution, read-out: MIC
[12] = test strain 14, C. difficile 152, anaerobic, agar dilution, read-out: MIC
[13] = test strain 3, S. aureus^MR (methicillin resistant), read-out: MIC
[14] = test strain 9, E. faecalis^LinR (linezolid resistant), read-out: MIC
[15] = test strain 10, E. faecium, read-out: MIC
[16] = test strain 19, C. difficile 181, anaerobic, agar dilution, read-out: MIC
[17] = test strain 16, C. difficile 161, anaerobic, agar dilution, read-out: MIC
[18] = test strain 4, S. aureus^VR (vancomycin resistant), read-out: MIC
[19] = test strain 15, C. difficile 159, anaerobic, agar dilution, read-out: MIC
[20] = test strain 12, E. faecium^LinR (linezolid resistant), read-out: MIC
[21] = test strain 23, M. abscessus, resazurin, read-out: MIC

Structure (SMILES)	MIC (S. aureus^MS [2]) [µg/mL]	MIC (E. faecalis) [µg/mL]	MIC (S. epidermis^MR) [µg/mL]	MIC (S. epidermis) [µg/mL]	MIC (C. difficile 174; 174) [µg/mL]	MIC (C. difficile 9689; 9689) [µg/mL]	MIC (C. difficile 152; 152) [µg/mL]	MIC (C. difficile 161; 161) [µg/mL]	MIC (S. aureus^MS [1]; [3]) [µg/mL]	MIC (E. faecium^VRE; [4]) [µg/mL]	MIC (S. aureus^MS [2]; [5]) [µg/mL]	MIC (E. faecalis; [6]) [µg/mL]	MIC (S. epidermis^MR; [7]) [µg/mL]	MIC (E. faecalis^VanA; [8]) [µg/mL]	MIC (C. difficile 173; [9]) [µg/mL]	MIC (C. difficile 174; [10]) [µg/mL]	MIC (C. difficile 9689; [11]) [µg/mL]	MIC (C. difficile 152; [12]) [µg/mL]	MIC (S. aureus^MR; [13]) [µg/mL]	MIC (E. faecalis^LinR; [14]) [µg/mL]	also measured
C/C=C(\NC(=O)c1csc(-c2csc(-c3ccc4c(n3)-c3csc(n3)[C@H]([C@@H](C)O)NC(=O)c3csc(n3)[C@H](C(C)C)NC(=O)c3csc(n3)/C(=C/C)NC(=O)[C@H]([C@@H](C)O)NC(=O)c3csc-4n3)n2)n1)C(=O)NCCCN1C(=O)CNC1=O [Compound 40]	0.5 (≈ 0.408 µM)	0.25 (≈ 0.204 µM)	0.25 (≈ 0.204 µM)	0.5 (≈ 0.408 µM)	0.5 (≈ 0.408 µM)	1 (≈ 0.815 µM)	0.5 (≈ 0.408 µM)	0.5 (≈ 0.408 µM)													MIC (S. aureus^MS [1]): 0.5 µg/mL (≈ 0.408 µM); MIC (E. faecium^VRE; VRE): 1 µg/mL (≈ 0.815 µM); MIC (E. faecalis^VanA): 0.5 µg/mL (≈ 0.408 µM); MIC (S. aureus^MR): 1 µg/mL (≈ 0.815 µM); MIC (E. faecalis^LinR): 0.5 µg/mL (≈ 0.408 µM); MIC (E. faecium): 0.5 µg/mL (≈ 0.408 µM); MIC (S. aureus^VR): 0.5 µg/mL (≈ 0.408 µM); MIC (C. difficile 159; 159): 1 µg/mL (≈ 0.815 µM); MIC (E. faecium^LinR): 1 µg/mL (≈ 0.815 µM)
C/C=C(\NC(=O)c1csc(-c2csc(-c3ccc4c(n3)-c3csc(n3)[C@H]([C@@H](C)O)NC(=O)c3csc(n3)[C@H](C(C)C)NC(=O)c3csc(n3)/C(=C/C)NC(=O)[C@H]([C@@H](C)O)NC(=O)c3csc-4n3)n2)n1)C(=O)NCCn1cnc([N+](=O)[O-])n1 [Compound 42]									1 (≈ 0.815 µM)	1 (≈ 0.815 µM)	1 (≈ 0.815 µM)	0.5 (≈ 0.408 µM)	0.5 (≈ 0.408 µM)	0.5 (≈ 0.408 µM)	0.5 (≈ 0.408 µM)	0.5 (≈ 0.408 µM)	0.5 (≈ 0.408 µM)	0.5 (≈ 0.408 µM)	1 (≈ 0.815 µM)	0.5 (≈ 0.408 µM)	MIC (S. epidermis; test strain 5, S. epidermis, read-out: MIC): 0.5 µg/mL (≈ 0.408 µM); MIC (E. faecium; [15]): 1 µg/mL (≈ 0.815 µM); MIC (C. difficile 181; [16]): 0.5 µg/mL (≈ 0.408 µM); MIC (C. difficile 161; [17]): 1 µg/mL (≈ 0.815 µM); MIC (S. aureus^VR; [18]): 1 µg/mL (≈ 0.815 µM); MIC (C. difficile 159; [19]): 0.5 µg/mL (≈ 0.408 µM); MIC (E. faecium^LinR; [20]): 1 µg/mL (≈ 0.815 µM)
C/C=C1\NC(=O)[C@H]([C@@H](C)O)NC(=O)c2csc(n2)-c2ccc(-c3nc(-c4nc(C(=O)NC5(C(=O)NN6CC(=O)N(CC(=O)OC)C6=O)CC5)cs4)cs3)nc2-c2csc(n2)[C@H]([C@@H](C)O)NC(=O)c2csc(n2)[C@H](C(C)C)NC(=O)c2csc1n2 [Compound 26]	1 (≈ 0.796 µM)	1 (≈ 0.796 µM)	1 (≈ 0.796 µM)	0.5 (≈ 0.398 µM)	0.5 (≈ 0.398 µM)	1 (≈ 0.796 µM)	0.5 (≈ 0.398 µM)	0.5 (≈ 0.398 µM)													MIC (M. intracelluare): 0.043 µg/mL (≈ 0.0342 µM); MIC (C. difficile 173; 173): 0.5 µg/mL (≈ 0.398 µM); MIC (M. abscessus): 0.726 µg/mL (≈ 0.578 µM); MIC (C. difficile 181; 181): 1 µg/mL (≈ 0.796 µM)
C/C=C1\NC(=O)[C@H]([C@@H](C)O)NC(=O)c2csc(n2)-c2ccc(-c3nc(-c4nc(C(=O)NC5(C(=O)NCCCN6C(=O)CNC6=O)CC5)cs4)cs3)nc2-c2csc(n2)[C@H]([C@@H](C)O)NC(=O)c2csc(n2)[C@H](C(C)C)NC(=O)c2csc1n2 [Compound 9]				0.125 (≈ 0.102 µM)					0.25 (≈ 0.204 µM)	1 (≈ 0.815 µM)	0.25 (≈ 0.204 µM)	0.25 (≈ 0.204 µM)	0.25 (≈ 0.204 µM)	0.5 (≈ 0.408 µM)	0.06 (≈ 0.0489 µM)	0.06 (≈ 0.0489 µM)	0.5 (≈ 0.408 µM)	0.06 (≈ 0.0489 µM)	1 (≈ 0.815 µM)	0.5 (≈ 0.408 µM)	MIC (M. abscessus; [21]): 0.37 µg/mL (≈ 0.302 µM); MIC (E. faecium; [15]): 0.5 µg/mL (≈ 0.408 µM); MIC (C. difficile 181; [16]): 0.25 µg/mL (≈ 0.204 µM); MIC (C. difficile 161; [17]): 0.5 µg/mL (≈ 0.408 µM); MIC (S. aureus^VR; [18]): 1 µg/mL (≈ 0.815 µM); MIC (C. difficile 159; [19]): 0.5 µg/mL (≈ 0.408 µM); MIC (E. faecium^LinR; [20]): 0.5 µg/mL (≈ 0.408 µM)
CC[C@H]1OC(=O)[C@H](C)[C@@H](O[C@H]2C[C@@](C)(OC)[C@@H](O)[C@H](C)O2)[C@H](C)[C@@H](O[C@@H]2O[C@H](C)C[C@H](N(C)C)[C@H]2O)[C@](C)(OC)C[C@@H](C)C(=O)[C@H](C)[C@@H](O)[C@]1(C)O [Cla, Clarithromycin, reference compound]																					MIC (M. intracelluare; test strain 22, M. intracelluare, resazurin, read-out: MIC): 0.143 µg/mL (≈ 0.191 µM); MIC (M. abscessus; [21]): 1.28 µg/mL (≈ 1.71 µM); MIC (M. avium): 0.205 µg/mL (≈ 0.274 µM)
